In US5523407A, “Quinoline derivatives, their production and use as ACAT inhibitors” (Takeda Chemical Industries, Ltd., priority 1989, dated 1996):

Columns and labels:
[1] = biological target: T1, Acyl-CoA: cholesterol acyltransferase (ACAT) (Rattus norvegicus, UniProt Q7TQM4); assay: ACAT inhibitory activity (rat small intestine mucosal microsome; labeled cholesterol ester from [1-^14 C] oleoyl-CoA); format: biochemical, Sprague-Dawley rat; details: 10^-6 M test compound; read-out: ACAT Inhibition Rate
T1 construct: from the mucosal microsome fraction of the small intestine; from tissue; host or cells: small intestine mucosal microsomes, male 6-week old Sprague-Dawley rats fasted 20 hours
T1 sequence (Q7TQM4 1-524): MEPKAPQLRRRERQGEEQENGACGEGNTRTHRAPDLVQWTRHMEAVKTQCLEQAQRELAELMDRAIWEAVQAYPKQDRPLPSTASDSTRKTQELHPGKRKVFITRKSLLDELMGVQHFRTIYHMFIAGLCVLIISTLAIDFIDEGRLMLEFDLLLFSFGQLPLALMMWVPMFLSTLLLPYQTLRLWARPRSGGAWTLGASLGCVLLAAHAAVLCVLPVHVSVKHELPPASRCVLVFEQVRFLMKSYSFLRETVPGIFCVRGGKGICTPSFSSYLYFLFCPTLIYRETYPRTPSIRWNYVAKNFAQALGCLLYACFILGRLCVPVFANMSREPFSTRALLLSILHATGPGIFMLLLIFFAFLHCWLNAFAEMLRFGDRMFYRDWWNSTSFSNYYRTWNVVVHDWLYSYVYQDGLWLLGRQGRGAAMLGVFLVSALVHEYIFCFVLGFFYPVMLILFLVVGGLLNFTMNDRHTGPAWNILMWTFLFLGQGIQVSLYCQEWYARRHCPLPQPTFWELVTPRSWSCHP
Procedure: 1. Acyl-CoA: cholesterol acyltransferase (ACAT) inhibitory activity
The enzyme ACAT was prepared by the method of Heider et al. described in Journal of Lipid Research, Vol. 24, page 1127 (1982), from the mucosal microsome fraction of the small intestine of male, 6-week old Sprague-Dawley rats which had been fasted for 20 hours.
ACAT activity was calculated by the method of Helgerud et. al. described in Journal of Lipid Research, Vol. 22, page 271 (1981), namely, by measuring the amount of the labeled cholesterol ester produced from [1-^14 C] oleoyl-CoA and endogenous cholesterol.
Inhibition rates (%) of the production of the labeled cholesterol ester wherein 10-^6 M of test compounds were added are shown as an index of ACAT inhibitory activity in Table 1.

[2] = tested on: lipoperoxide production in homogenized brain; assay: Lipoperoxide inhibitory activity (natural oxidation of homogenized rat brain, malonodialdehyde by TBA method); format: biochemical, Sprague-Dawley rat; details: for Lipoperoxide inhibition rate: 10^-5 M test compound; for IC50: read-out: Lipoperoxide Inhibitory Activity, 50% inhibitory concentration (IC50)
Procedure: 2. Lipoperoxide inhibitory activity
From 10-week, old, male Sprague-Dawely rats which were fed CE-2 diet (Nippon Claire) and water, their brains were taken out by the method of Stocks disclosed in Clinical Science Molecular Medicine, Vol. 78, page 215 (1974), to form lipoperoxide by natural oxidation. The compound (I) in an amount of 10-^3 moles was dissolved in ethanol, and the resultant (10 μl) was added to each homogenized brain. On the other hand, ethanol from which the compound (I) was removed was added to a control group of homogenized brain. A malonodialdehyde was measured by the (TBA) method disclosed in Okawa et al., Analysis Biochemistry, Vol. 95, page 351 (1979). The produced lipoperoxide was calculated based on the measured value of malonodialdehyde.

Row | SMILES | inhibition at 1 µM [1] | Lipoperoxide inhibition rate [2] | IC50 [2]
1 | Cc1cc(C)c2ncc(NC(=O)C=Cc3cc(C)c(O)c(C)c3)c(-c3ccccc3Cl)c2c1 [Example 34, 4-(2-chlorophenyl)-3-(4-hydroxy-3,5-dimethylcinnamoylamino)-6,8-dimethylquinoline] | 86.4% | 62.1% | 
2 | COc1cc(C=CC(=O)Nc2cnc3c(C)cc(C)cc3c2-c2ccccc2Cl)cc(OC)c1O [Example 33, 4-(2-chlorophenyl)-3-(4-hydroxy-3,5-dimethoxycinnamonylamino)-6,8-dimethylquinoline] | 81.7% | 96.1% | 1300 nM
3 | O=C(C=Cc1ccc(O)c(O)c1)Nc1cnc2ccc(Cl)cc2c1-c1ccccc1Cl [Example 43, 6-chloro-4-(2-chlorophenyl)-3-(3,4-dihydroxycinnamoylamino)quinoline] | 97% |  | 
4 | COc1ccc(-c2c(NC(=O)c3cc(C(C)(C)C)c(O)c(C(C)(C)C)c3)cnc3ccc(Cl)cc23)c(OC)c1OC [Example 4, 3-(3,5-di-tert-butyl-4-hydroxybenzamido)-6-chloro-4-(2,3,4-trimethoxyphenyl) quinoline] | 84.8% |  | 
5 | COc1ccc(-c2c(NC(=O)c3cc(C(C)(C)C)c(O)c(C(C)(C)C)c3)cnc3ccc(Cl)cc23)cc1OC [Example 3, 3-(3,5-di-tert-butyl-4-hydroxybenzamido)-6-chloro-4-(3,4-dimethoxyphenyl)quinoline] | 83.4% |  | 
6 | COc1cc(C=CC(=O)Nc2cnc3c(C)cc(C)cc3c2-c2ccccc2Cl)cc(OC)c1OC(C)=O [Example 27, 3-(4-acetoxy-3,5-dimethoxylcinnamoylamino)-4-(2-chlorophenyl)-6,8-dimethylquinoline] | 83.7% | 90.2% | 
7 | Cc1cc(C)c2ncc(NC(=O)C=Cc3cc(C)c(O)c(C)c3C)c(-c3ccccc3Cl)c2c1 [Example 35, 4-(2-chlorophenyl)-3-(4-hydroxy-2,3,-trimethylcinnamoylamino)-6,8-dimethylquinoline] | 81.7% | 84.9% | 810 nM
8 | Cc1cc(C)c2ncc(NC(=O)C=Cc3ccc(O)c(O)c3)c(-c3ccccc3Cl)c2c1 [Example 38, 4-(2-chlorophenyl)-3-(3,4-dihydroxycinnamoylamino)-6,8-dimethylquinoline] | 78.2% |  | 
9 | Cc1cc(C)c2ncc(NC(=O)C=Cc3cccc(O)c3O)c(-c3ccccc3Cl)c2c1 [Example 32, 4-(2-chlorophenyl)-3-(2,3-dihydroxycinnamoylamino)-6,8-dimethylquinoline] | 66.6% | 99.7% | 400 nM
10 | Cc1cc(C)c2ncc(NC(=O)c3cc(C(C)(C)C)c(O)c(C(C)(C)C)c3)c(-c3ccccc3Cl)c2c1 [Example 1, 4-(2-chlorophenyl)-3-(3,5-di-tert-butyl-4-hydroxybenzamido)-6,8-dimethylquinoline] | 82.2% |  | 
11 | CC(=O)Oc1c(C)cc(C(=O)Nc2cnc3c(C)cc(C)cc3c2-c2ccccc2Cl)cc1C [Example 8, 3-(4-acetoxy-3,5-dimethylbenzamido)-4-(2-chlorophenyl)-6,8-dimethylquinoline] | 62% |  | 
12 | Cc1cc(C)c2ncc(NC(=O)C3(C)Cc4c(C)c(O)c(C)c(C)c4O3)c(-c3ccccc3Cl)c2c1 (stereo not drawn) [Example 14, 4-(2-chlorophenyl)-3-(2,3-dihydro-5-hydroxy-2,4,6,7-tetramethylbenzofuran-2-ylcarbonyl)amino-6,8-dimethylquinoline] | 83.1% | 98.4% | 370 nM
13 | Cc1cc(C)c2ncc(NC(=O)C3(C)CCc4c(C)c(O)c(C)c(C)c4O3)c(-c3ccccc3Cl)c2c1 (stereo not drawn) [Example 12, 4-(2-chlorophenyl)-3-(6-hydroxy-2,5,7,8-tetramethylchroman-2-ylcarbonyl)amino-6,8-dimethylquinoline] | 41.2% | 98.5% | 
14 | CC1=C(C(=O)Nc2cnc3c(C)cc(C)cc3c2-c2ccccc2Cl)Sc2ccccc2N1 [Example 15, 4-(2-chlorophenyl)-6,8-dimethyl-3-(3-methyl-4H-1,4-benzothiazin-2-ylcarbonyl) aminoquinoline] | 76% |  | 
15 | COc1cccc(C=CC(=O)Nc2cnc3c(C)cc(C)cc3c2-c2ccccc2Cl)c1OC [Example 24, 4-(2-chlorophenyl)-3-(2,3-dimethoxycinnamoylamino)-6,8-di-methylquinoline] | 69.4% |  | 
16 | COc1ccc(C=CC(=O)Nc2cnc3cc(C)c(C)cc3c2-c2ccccc2Cl)cc1OC [Example 22, 4-(2-chlorophenyl)-3-(3,4-dimethoxycinnamoylamino)-6,7-di-methylquinoline] | 92.6% |  | 
17 | CC(=O)Oc1c(C)c(C)c2c(c1C)CC(C)(C(=O)Nc1cnc3c(C)cc(C)cc3c1-c1ccccc1Cl)O2 (stereo not drawn) [Example 13, 3-(5-acetoxy-2,3-dihydro-2,4,6,7-tetramethylbenzofuran-2-ylcarbonyl)amino-4-(2-chlorophenyl)-6,8-dimethylquinoline] | 64.7% | 71.6% | 
18 | CC1=C(C(=O)Nc2cnc3c(C)cc(C)cc3c2-c2ccccc2Cl)Sc2cc(F)ccc2N1 [Example 16, 4-(2-chlorophenyl)-3-(7-fluoro-3-methyl-4H-1,4-benzothiazin-2-ylcarbonyl)amino-6,8-dimethylquinoline] | 72.6% | 100% | 1200 nM
19 | CC(=O)Oc1c(C(C)C)cc(C(=O)Nc2cnc3c(C)cc(C)cc3c2-c2ccccc2Cl)cc1C(C)C [Example 6, 3-(4-acetoxy-3,5-diisopropylbenzamido)-4-(2-chlorophenyl)-6,8-dimethylquinoline] | 79.3% |  | 
20 | Cc1cc(C)c2ncc(NC(=O)Cc3ccc(F)cc3F)c(-c3ccccc3Cl)c2c1 [Example 18, 4-(2-chlorophenyl)-3-(2,4-difluorophenylacetylamino)-6,8-dimethylquinoline] | 94% |  | 
21 | COC(=O)c1ccc(C=CC(=O)Nc2cnc3c(C)cc(C)cc3c2-c2ccccc2Cl)cc1 [Example 23, 4-(2-chlorophenyl)-3-(4-methoxycarbonylcinnamoylamino)-6,8-dimethylquinoline] | 65.9% |  | 
22 | COc1ccc(OC)c(C=CC(=O)Nc2cnc3c(C)cc(C)cc3c2-c2ccccc2Cl)c1 [Example 25, 4-(2-chlorophenyl)-3-(2,5-dimethoxycinnamoylamino)-6,8-dimethylquinoline] | 73.7% |  | 
23 | COc1ccc(C=CC(=O)Nc2c(-c3ccccc3Cl)c3cc(C)cc(C)c3n(C)c2=O)cc1OC [Example 36, 4-(2-chlorophenyl)-3-(3,4-dimethoxycinnamoylamino)-1,6,8-trimethyl-2(1H)-quinolone] | 63% |  | 
24 | Cc1cc(C)c2ncc(NC(=O)c3cc(C)c(O)c(C)c3C)c(-c3ccccc3Cl)c2c1 [Example 11, 4-(2-chlorophenyl)-3-(4-hydroxy-2,3,5-trimethylbenzamido)-6,8-dimethylquinoline] | 94.3% |  | 
25 | COc1ccc(C=CC(=O)Nc2cnc3c(C)cc(C)cc3c2-c2ccccc2Cl)c(OC)c1OC [Example 46, 4-(2-chlorophenyl)-6,8-dimethyl-3-(2,3,4-trimethoxycinnamoylamino) quinoline] | 72.6% |  | 
